Results from ChEMBL document CHEMBL4422652, “Synthesis and biological evaluation of novel oleanolic acid analogues as potential α-glucosidase inhibitors” (Eur J Med Chem, 2019).
One block for each compound: values may come before it. Calls of active or inactive are those of the source. The calls are words filed in the database; no cut-off is given here.

Legend:
[1] = Inhibition of baker's yeast alpha-glucosidase using phenol-alphaD-glycopyranoside as substrate preincubated for 10 mins followed by substrate addition and measured after 30 mins; parameters: species or system Saccharomyces cerevisiae
[2] = Inhibition of baker's yeast alpha-glucosidase using PNPG as substrate after 10 mins by spectrophotometric method; parameters: species or system Saccharomyces cerevisiae
[3] = Inhibition of baker's yeast alpha-glucosidase using PNPG as substrate preincubated for 15 mins followed by substrate addition and measured after 5 mins by spectrophotometric method; parameters: species or system Saccharomyces cerevisiae
[4] = system: Mus musculus; experiment: Hypoglycemic activity in streptozocin-induced diabetic Kunming mouse assessed as blood glucose level at 50 mg/kg, po administered once daily for 18 days measured on day 12 post dose (reference value: 23.09 +/- 1.45 mM); format: functional
[5] = system: Mus musculus; experiment: Hypoglycemic activity in streptozocin-induced diabetic Kunming mouse assessed as blood glucose level at 50 mg/kg, po administered once daily for 18 days measured on day 1 post dose (reference value: 18.86 +/- 0.7 mM); format: functional
[6] = system: Mus musculus; experiment: Hypoglycemic activity in streptozocin-induced diabetic Kunming mouse assessed as blood glucose level at 50 mg/kg, po administered once daily for 18 days measured on day 6 post dose (reference value: 22.31 +/- 1.05 mM); format: functional
[7] = system: Mus musculus; experiment: Hypoglycemic activity in streptozocin-induced diabetic Kunming mouse assessed as blood glucose level at 50 mg/kg, po administered once daily for 18 days measured on day 12 post dose (reference value: 23.27 +/- 1.03 mM); format: functional
[8] = system: Saccharomyces cerevisiae; experiment: Non-competitive inhibition of baker's yeast alpha-glucosidase assessed as Km for substrate using varying levels of phenol-alphaD-glycopyranoside as substrate preincubated for 10 mins followed by substrate addition and measured after 30 mins by double reciprocal plot analysis
[9] = system: Mus musculus; experiment: Hypoglycemic activity in streptozocin-induced diabetic Kunming mouse assessed as reduction in blood glucose level at 50 mg/kg, po measured at 7 hrs post dose; format: functional, organism-based
[10] = system: NIH3T3; experiment: Cytotoxicity against mouse 3T3 cells assessed as growth inhibition measured after 48 hrs by MTT assay; format: cell-based; conditions: NIH3T3, 48 h
[11] = Non-competitive inhibition of baker's yeast alpha-glucosidase using varying levels of phenol-alphaD-glycopyranoside as substrate preincubated for 10 mins followed by substrate addition and measured after 30 mins by double reciprocal plot analysis; parameters: species or system Saccharomyces cerevisiae
[12] = system: Mus musculus; experiment: Hypoglycemic activity in streptozocin-induced diabetic Kunming mouse assessed as reduction in blood glucose level at 50 mg/kg, po treated 30 mins prior to glucose challenge and measured up to 210 mins by OGTT; format: functional, organism-based
[13] = Toxicity in streptozocin-induced diabetic Kunming mouse assessed as effect on body weight at 50 mg/kg, po administered once daily for 18 days measured every 6 days starting from day 1 during compound dosing; format: organism-based; conditions: in vivo
[14] = system: Mus musculus; experiment: Hypoglycemic activity in streptozocin-induced diabetic Kunming mouse assessed as reduction in blood glucose AUC at 50 mg/kg, po treated 30 mins prior to glucose challenge and measured up to 210 mins by OGTT; format: functional, organism-based

Structure (SMILES): CC1(C)CC[C@@]23CC[C@]4(C)[C@](OC2=O)([C@H](F)C[C@@H]2[C@@]5(C)C/C(=C\c6ccc(-n7cncn7)cc6)C(=O)C(C)(C)[C@@H]5CC[C@]24C)[C@@H]3C1
- IC50 [1]: 3180 nM

Structure (SMILES): CC1(C)CC[C@]2(C(=O)Oc3ccc(C(=O)/C=C/c4ccc(Br)cc4)cc3)CC[C@]3(C)C(=CC[C@@H]4[C@@]5(C)CCC(=O)C(C)(C)[C@@H]5CC[C@]43C)[C@@H]2C1
- IC50 [3]: 2200 nM

Structure (SMILES): CC1(C)CC[C@@]23CC[C@]4(C)[C@](OC2=O)([C@H](F)C[C@@H]2[C@@]5(C)C/C(=C\c6ccccc6Br)C(=O)C(C)(C)[C@@H]5CC[C@]24C)[C@@H]3C1
- IC50 [1]: 2510 nM

Structure (SMILES): CC1(C)CC[C@@]23CC[C@]4(C)[C@](OC2=O)([C@H](F)C[C@@H]2[C@@]5(C)C/C(=C\c6ccc(-c7ccccn7)cc6)C(=O)C(C)(C)[C@@H]5CC[C@]24C)[C@@H]3C1
- IC50 [1]: 3670 nM

Structure (SMILES): COc1cccc(/C=C2\C[C@]3(C)[C@H]4C[C@@H](F)[C@]56OC(=O)[C@@]7(CCC(C)(C)C[C@H]75)CC[C@@]6(C)[C@]4(C)CC[C@H]3C(C)(C)C2=O)c1
- IC50 [1]: 3290 nM

Structure (SMILES): C[C@H]1O[C@H](O[C@H]2[C@H](O)[C@@H](O)[C@@H](O[C@H]3[C@H](O)[C@@H](O)C(O)O[C@@H]3CO)O[C@@H]2CO)[C@H](O)[C@@H](O)[C@@H]1N[C@H]1C=C(CO)[C@@H](O)[C@H](O)[C@H]1O (some centres not stated) [ACARBOSE]
- Activity [4]: 20.41 mM
- IC50 [1]: 579000 nM
- Activity [5]: 19.14 mM
- Activity [6]: 22.44 mM
- Activity [7]: 15.48 mM

Structure (SMILES): CC1(C)CC[C@@]23CC[C@]4(C)[C@](OC2=O)([C@H](F)C[C@@H]2[C@@]5(C)C/C(=C\c6cnccn6)C(=O)C(C)(C)[C@@H]5CC[C@]24C)[C@@H]3C1
- IC50 [1]: 3140 nM

Structure (SMILES): CC1(C)CC[C@]2(C(=O)O)CC[C@]3(C)C(=CC[C@@H]4[C@@]5(C)CC[C@H](O)C(C)(C)[C@@H]5CC[C@]43C)[C@@H]2C1 [OLEANOLIC_ACID]
- IC50 [1]: 2410 nM

Structure (SMILES): CC1(C)CC[C@@]23CC[C@]4(C)[C@](OC2=O)([C@H](F)C[C@@H]2[C@@]5(C)C/C(=C\c6cccc(F)c6)C(=O)C(C)(C)[C@@H]5CC[C@]24C)[C@@H]3C1
- IC50 [1]: 2790 nM

Structure (SMILES): CC1(C)CC[C@@]23CC[C@]4(C)[C@](OC2=O)([C@H](F)C[C@@H]2[C@@]5(C)C/C(=C\c6ccccn6)C(=O)C(C)(C)[C@@H]5CC[C@]24C)[C@@H]3C1
- IC50 [1]: 2670 nM

Second part, led by results:

- IC50 [1]: 2160 nM
Structure (SMILES): Cc1cccc(/C=C2\C[C@]3(C)[C@H]4C[C@@H](F)[C@]56OC(=O)[C@@]7(CCC(C)(C)C[C@H]75)CC[C@@]6(C)[C@]4(C)CC[C@H]3C(C)(C)C2=O)c1

- IC50 [1]: 1510 nM
- IC50 [2]: 1900 nM
Structure (SMILES): CC1(C)CC[C@@]23CC[C@]4(C)[C@](OC2=O)([C@H](F)C[C@@H]2[C@@]5(C)C/C(=C\c6ccc(C(F)(F)F)cc6)C(=O)C(C)(C)[C@@H]5CC[C@]24C)[C@@H]3C1

- IC50 [1]: 1580 nM
Structure (SMILES): Cc1ccccc1/C=C1\C[C@]2(C)[C@H]3C[C@@H](F)[C@]45OC(=O)[C@@]6(CCC(C)(C)C[C@H]64)CC[C@@]5(C)[C@]3(C)CC[C@H]2C(C)(C)C1=O

- Km [8]: 120 µM
- IC50 [1]: 330 nM
- Ki [11]: 520 nM
Structure (SMILES): COc1ccc(/C=C2\C[C@]3(C)[C@H]4C[C@@H](F)[C@]56OC(=O)[C@@]7(CCC(C)(C)C[C@H]75)CC[C@@]6(C)[C@]4(C)CC[C@H]3C(C)(C)C2=O)cc1
- Activity [4]: 17.49 mM
- Activity [5]: 18.61 mM
- Activity [9]: Active
- IC50 [10]: > 300000 nM
- Activity [6]: 19.96 mM
- Activity [12]: Active
- Activity [7]: 13.74 mM
- Activity [13]: Non-Toxic
- Activity [14]: Active

- IC50 [1]: 1540 nM
Structure (SMILES): CC1(C)CC[C@@]23CC[C@]4(C)[C@](OC2=O)([C@H](F)C[C@@H]2[C@@]5(C)C/C(=C\c6ccccc6Cl)C(=O)C(C)(C)[C@@H]5CC[C@]24C)[C@@H]3C1

- IC50 [1]: 1860 nM
Structure (SMILES): CC1(C)CC[C@@]23CC[C@]4(C)[C@](OC2=O)([C@H](F)C[C@@H]2[C@@]5(C)C/C(=C\c6ccc(C(F)(F)F)nc6)C(=O)C(C)(C)[C@@H]5CC[C@]24C)[C@@H]3C1
